Results on 39 compounds are retold here after patent US8853420B2, “Compounds” (Boehringer Ingelheim International GmbH, priority 2008, dated 2014).

The target of the test is T1, Xenopus laevis Aurora B/INCENP complex (Xenopus laevis, UniProt Q6DE08).
T1 construct: equipped at the N-terminal position with a GST tag (amino acids 60-361); GST (N, cleaved yes); made in house; host or cells: E. coli BL21 (DE3)
Kind of test: Aurora-B kinase assay (radioactive enzyme inhibition assay). It is filed as biochemical. Particulars: test substance at 1 μM; percentage of the positive control (maximum value without test substance). The text has this: Example Aurora-B Kinase Assay
A radioactive enzyme inhibition assay was developed using E. coli-expressed recombinant Xenopus laevis Aurora B wild-type protein equipped at the N-terminal position with a GST tag (amino acids 60-361) in a complex with Xenopus laevis INCENP (amino acids 790-847), which is obtained from bacteria and purified. In equivalent manner a Xenopus laevis Aurora B mutant (G96V) in a complex with Xenopus laevis INCENP^790-847 may also be used.
Expression and Purification
The coding sequence for Aurora-B^60-361 from Xenopus laevis is cloned into a modified version of pGEX-6T (Amersham Biotech) via BamHI and SalI cutting sites. The vector contains two cloning cassettes which are separated by a ribosomal binding site, allowing bi-cistronic expression. In this configuration Xenopus laevis Aurora B is expressed by the first cassette, and the Xenopus laevis INCENP^790-847 is expressed by the second cassette. The resulting vector is pAUB-IN^847.
First of all the E. coli strain BL21 (DE3) is co-transformed with pUBS520 helper plasmid and pAUB-IN^847, after which protein expression is induced using 0.3 mM IPTG at an OD600 of 0.45-0.7. The expression is then continued for approx. 12-16 h at 23-25° C. with agitation.
The bacteria are then removed by centrifuging and the pellet is lysed in lysis buffer (50 mM Tris/Cl pH 7.6, 300 mM NaCl, 1 mM DTT, 1 mM EDTA, 5% glycerol, Roche Complete Protease Inhibitor tablets) using ultrasound, using 20-30 mL lysis buffer per liter of E. coli culture. The lysed material is freed from debris by centrifugation (12000 rpm, 45-60 min, JA20 rotor). The supernatant is incubated with 300 μL of equilibrated GST Sepharose Fast Flow (Amersham Biosciences) per liter of E. coli culture for 4-5 h at 4° C. Then the column material is washed with 30 volumes of lysis buffer and then equilibrated with 30 volumes of cleavage buffer (50 mM Tris/Cl pH 7.6, 150 mM NaCl, 1 mM DTT, 1 mM EDTA). To cleave the GST tag from Aurora B, 10 units of Prescission Protease (Amersham Biosciences) are used per milligram of substrate and the mixture is incubated for 16 h at 4° C. The supernatant which contains the cleavage product is loaded onto a 6 mL Resource Q column (Amersham Biosciences) equilibrated with ion exchange buffer (50 mM Tris/Cl pH 7.6, 150 mM NaCl, 1 mM DTT, 1 mM EDTA). The Aurora B/INCENP complex is caught as it flows through, then concentrated and loaded onto a Superdex 200 size exclusion chromatography (SEC) column equilibrated with SEC buffer (10 mM Tris/Cl pH 7.6, 150 mM NaCl, 1 mM DTT, 1 mM EDTA). Fractions which contain the AuroraB/INCENP complex are collected and concentrated using Vivaspin concentrators (molecular weight exclusion 3000-5000 Da) to a final concentration of 12 mg/mL. Aliquots (e.g. 240 ng/μL) for kinase assays are transferred from this stock solution into freezing buffer (50 mM Tris/Cl pH 8.0, 150 mM NaCl, 0.1 mM EDTA, 0.03% Brij-35, 10% glycerol, 1 mM DTT) and stored at −80° C.
Test substances are placed in a polypropylene dish (96 wells, Greiner #655 201), in order to cover a concentration frame of 10 μM-0.0001 μM. The final concentration of DMSO in the assay is 5%. 30 μL of protein mix (50 mM tris/Cl pH 7.5, 25 mM MgCl2, 25 mM NaCl, 167 μM ATP, 10 ng Xenopus laevis Aurora B/INCENP complex in freezing buffer) are pipetted into the 10 μl of test substance provided in 25% DMSO and this is incubated for 15 min at RT. Then 10 μL of peptide mix (100 mM tris/Cl pH 7.5, 50 mM MgCl2, 50 mM NaCl, 5 μM NaF, 5 μM DTT, 1 μCi gamma-P33-ATP [Amersham], 50 μM substrate peptide [biotin-[…] or multimers thereof, or biotin-[…] or multimers thereof, or biotin-[…]]) are added. The reaction is incubated for 75 min (ambient temperature) and stopped by the addition of 180 μL of 6.4% trichloroacetic acid and incubated for 20 min on ice. […]

T1 sequence (Q6DE08 60-361): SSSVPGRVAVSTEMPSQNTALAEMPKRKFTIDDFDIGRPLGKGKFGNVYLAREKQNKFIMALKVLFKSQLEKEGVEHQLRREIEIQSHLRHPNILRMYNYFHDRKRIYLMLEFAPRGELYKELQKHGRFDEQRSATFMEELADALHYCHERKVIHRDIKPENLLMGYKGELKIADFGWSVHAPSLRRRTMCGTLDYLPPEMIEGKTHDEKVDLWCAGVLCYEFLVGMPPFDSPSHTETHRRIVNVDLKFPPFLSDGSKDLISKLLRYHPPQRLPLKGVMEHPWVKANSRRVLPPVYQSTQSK
T1 sequence (O13024 790-847 partner limits assumed): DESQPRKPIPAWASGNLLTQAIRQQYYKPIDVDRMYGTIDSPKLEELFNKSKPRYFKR

What is called remaining activity is the signal under treatment as a percentage of the control signal. Turning to `CC(=O)Nc1ccc(-c2ccc3c(c2)NC(=O)/C3=C(\Nc2ccc(CN(C)C)cc2)c2ccccc2)cc1` [Example 72], the remaining activity at 1 µM was 3.37%. To `CC(C)Nc1ncc(-c2cc3c(cc2F)/C(=C(/Nc2ccc(CN(C)C)cc2)c2ccccc2)C(=O)N3)cn1` [Example 73] belongs 5.59%; to `CC(C)Nc1ncc(-c2ccc3c(c2)NC(=O)/C3=C(\Nc2ccc(N(C)C(=O)CN(C)C)cc2)c2ccccc2)cn1` [Example 75], 1.74%. Consider `CC(C)Nc1ncc(-c2ccc3c(c2)NC(=O)/C3=C(\NC2CCOCC2)c2ccccc2)cn1` [Example 77], for which the remaining activity at 1 µM is 96.2%. For the compound `CC(C)Nc1ncc(-c2ccc3c(c2)NC(=O)/C3=C(\NC2CCN(C)CC2)c2ccccc2)cn1` [Example 79], the remaining activity at 1 µM was determined as 103%. For the compound `COc1cc(N/C(=C2\C(=O)Nc3cc(-c4cnc(NC(C)C)nc4)ccc32)c2ccccc2)ccc1C(=O)O` [Example 80], the remaining activity at 1 µM came out at 2.32%. As to `CC(C)Nc1ncc(-c2ccc3c(c2)NC(=O)/C3=C(\Nc2ccc(C(C)(C)C(=O)O)cc2)c2ccccc2)cn1` [Example 81], the remaining activity at 1 µM came out at 1.26%. With `COC(=O)C(C)(C)c1ccc(N/C(=C2\C(=O)Nc3cc(-c4cnc(NC(C)C)nc4)ccc32)c2ccccc2)cc1` [Example 82], the remaining activity at 1 µM came to 5.13%. Take `CC(C)Nc1ncc(-c2ccc3c(c2)NC(=O)/C3=C(\Nc2ccc(C(=O)O)cc2)c2ccccc2)cn1` [Example 83]: the remaining activity at 1 µM worked out at 1.04%. In the case of `COC(=O)c1ccc(N/C(=C2\C(=O)Nc3cc(-c4cnc(NC(C)C)nc4)ccc32)c2ccccc2)cc1` [Example 84], the remaining activity at 1 µM turned out to be 65.2%.

For the compound `CNc1ccc(N/C(=C2\C(=O)Nc3cc(-c4cnc(NC(C)C)nc4)ccc32)c2ccccc2)cc1` [Example 85], the remaining activity at 1 µM was determined as 50.3%.

Regarding `CC(C)Nc1ncc(-c2ccc3c(c2)NC(=O)/C3=C(\Nc2ccc(N3CCN(C)CC3)nc2)c2ccccc2)cn1` [Example 86], the remaining activity at 1 µM amounted to 16.8%. For the compound `Cc1cc(N/C(=C2\C(=O)Nc3cc(-c4cnc(NC(C)C)nc4)ccc32)c2ccccc2)ccn1` [Example 87], the remaining activity at 1 µM is 2.67%. Regarding `CC(C)Nc1ncc(-c2ccc3c(c2)NC(=O)/C3=C(\Nc2ccc(OCCN3CCCC3)cc2)c2ccccc2)cn1` [Example 88], the remaining activity at 1 µM is 3.13%. For `CC(C)Nc1ncc(-c2ccc3c(c2)NC(=O)/C3=C(\Nc2ccc(OCCCN(C)C)cc2)c2ccccc2)cn1` [Example 89], the remaining activity at 1 µM amounted to 5.97%. Consider `CC(C)Nc1ncc(-c2ccc3c(c2)NC(=O)/C3=C(\Nc2cccc(CN3CCCC3)c2)c2ccccc2)cn1` [Example 91], for which the remaining activity at 1 µM came to 9.48%. On to `CC(C)Nc1ncc(-c2ccc3c(c2)NC(=O)/C3=C(\Nc2ccc(N3CCN(C)CC3)cc2)c2ccccc2)cn1` [Example 92], for which the remaining activity at 1 µM amounted to 3.85%.

Turning to `CC(C)Nc1ncc(-c2ccc3c(c2)NC(=O)/C3=C(\Nc2ccc(N3CCN(C)[C@@H](C)C3)cc2)c2ccccc2)cn1` [Example 93], the remaining activity at 1 µM amounted to 2.92%. The same measure for `CC(C)Nc1ncc(-c2ccc3c(c2)NC(=O)/C3=C(\Nc2ccc3c(c2)CN(C)C3)c2ccccc2)cn1` [Example 94]: 5.83%; for `CC(C)Nc1ccc(-c2ccc3c(c2)NC(=O)/C3=C(\Nc2ccc(C(C)(C)C(=O)N3CCN[C@@H](C)C3)cc2)c2ccccc2)cn1` [Example 99]: 4.64%. Regarding `CC(C)Nc1ccc(-c2ccc3c(c2)NC(=O)/C3=C(\Nc2ccc(C(C)(C)C(=O)N3CC[C@H](N(C)C)C3)cc2)c2ccccc2)cn1` [Example 100], the remaining activity at 1 µM stood at 3.36%. To `CC(C)Nc1ccc(-c2ccc3c(c2)NC(=O)/C3=C(\Nc2ccc(C(C)(C)C(=O)N3CC[C@@H](N(C)C)C3)cc2)c2ccccc2)cn1` [Example 101] belongs 3.62%; to `CC(C)Nc1ccc(-c2ccc3c(c2)NC(=O)/C3=C(\Nc2ccc(C(C)(C)C(=O)NC3CCN(C)CC3)cc2)c2ccccc2)cn1` [Example 102], 2.07%; to `CC(C)Nc1ccc(-c2ccc3c(c2)NC(=O)/C3=C(\Nc2ccc(C(C)(C)C(=O)N(C)C3CCN(C)CC3)cc2)c2ccccc2)cn1` [Example 103], 3.84%. Regarding `CCN1CCC2(CCN(C(=O)c3ccc(N/C(=C4\C(=O)Nc5cc(-c6ccc(NC(C)C)nc6)ccc54)c4ccccc4)cc3OC)C2)C1` (stereo not drawn) [Example 104], the remaining activity at 1 µM was determined as 1.71%. The same measure for `COc1cc(N/C(=C2\C(=O)Nc3cc(-c4ccc(NC(C)C)nc4)ccc32)c2ccccc2)ccc1C(=O)N1CCCN(C)CC1` [Example 105]: 1.57%. The same measure for `COc1cc(N/C(=C2\C(=O)Nc3cc(-c4ccc(NC(C)C)nc4)ccc32)c2ccccc2)ccc1C(=O)N1CCN(C(C)C)CC1` [Example 106]: 2.94%; for `COc1cc(N/C(=C2\C(=O)Nc3cc(-c4ccc(NC(C)C)nc4)ccc32)c2ccccc2)ccc1C(=O)N1CCC(N(C)C)CC1` [Example 107]: 1.66%. Turning to `COc1cc(N/C(=C2\C(=O)Nc3cc(-c4ccc(NC(C)C)nc4)ccc32)c2ccccc2)ccc1C(=O)N1C[C@H]2C[C@@H]1CN2C` [Example 108], the remaining activity at 1 µM was determined as 1.45%. As for `COc1cc(N/C(=C2\C(=O)Nc3cc(-c4ccc(NC(C)C)nc4)ccc32)c2ccccc2)ccc1C(=O)N1CCN(C)CC1` [Example 109], the remaining activity at 1 µM worked out at 2.08%. The same measure for `COc1cc(N/C(=C2\C(=O)Nc3cc(-c4ccc(NC(C)C)nc4)ccc32)c2ccccc2)ccc1C(=O)N1CC[C@H](N(C)C)C1` [Example 110]: 1.54%; for `COc1cc(N/C(=C2\C(=O)Nc3cc(-c4ccc(NC(C)C)nc4)ccc32)c2ccccc2)ccc1C(=O)N(C)CCN(C)C` [Example 111]: 2.35%; for `COc1cc(N/C(=C2\C(=O)Nc3cc(-c4ccc(NC(C)C)nc4)ccc32)c2ccccc2)ccc1C(=O)N(C)C1CCN(C)CC1` [Example 112]: 1.7%. Turning to `CCN1CCN(C(=O)c2ccc(N/C(=C3\C(=O)Nc4cc(-c5ccc(NC(C)C)nc5)ccc43)c3ccccc3)cc2)CC1` [Example 113], the remaining activity at 1 µM came to 4.25%.

For the compound `CC(C)CN1CCN(C(=O)c2ccc(N/C(=C3\C(=O)Nc4cc(-c5ccc(NC(C)C)nc5)ccc43)c3ccccc3)cc2)CC1` [Example 114], the remaining activity at 1 µM was 7.11%.

On to `CC(C)Nc1ccc(-c2ccc3c(c2)NC(=O)/C3=C(\Nc2ccc(C(=O)N3CCN[C@H](C)C3)cc2)c2ccccc2)cn1` [Example 115], for which the remaining activity at 1 µM amounted to 3.25%. Take `CCN1CCC2(CCN(C(=O)c3ccc(N/C(=C4\C(=O)Nc5cc(-c6ccc(NC(C)C)nc6)ccc54)c4ccccc4)cc3)C2)C1` (stereo not drawn) [Example 117]: the remaining activity at 1 µM was 3.03%. On to `CC(C)Nc1ccc(-c2ccc3c(c2)NC(=O)/C3=C(\Nc2ccc(C(=O)N3CCN(CC4CC4)CC3)cc2)c2ccccc2)cn1` [Example 118], for which the remaining activity at 1 µM turned out to be 4.44%. Take `CC(C)Nc1ccc(-c2ccc3c(c2)NC(=O)/C3=C(\Nc2ccc(C(=O)N3CCCN(C4CC4)CC3)cc2)c2ccccc2)cn1` [Example 119]: the remaining activity at 1 µM came to 3.54%.
